According to patent US20260078114A1, “COMPOUND USED AS INHIBITOR OF CDK4 KINASE AND USE THEREOF” (TYK MEDICINES, INC., priority 2022, published 2026):

Key:
CDK4/CycD1 = CDK4/CycD1 (Homo sapiens, UniProt P11802); test: Kinase activity test (mobility shift assay, EZ Reader), CDK4
Experimental: The tested compounds were subjected to CDK4 and CDK6 kinase IC50 values test.
• (1) Preparing a 1.3× enzyme solution containing enzyme, substrate and cofactor as shown below. • (2) Adding 15 μL of 1.3× enzyme solution to each well and incubating for 30 min at room temperature. • (3) Starting the reaction by adding 5 μL of 4×ATP solution, with each test well containing the listed components and a final volume of 20 μL. • (4) Incubating for 150 minutes and then stopping the reaction by adding 75 μL of buffer (containing 0.5 M EDTA). • (5) Reading the data from each test well by EZ for analysis.
Percentage inhibition was calculated using the read conversion ratio (CR) according to the formula below:
The wells treated with DMSO were used as positive control (positive control) and the wells without enzyme were used as negative control (negative control).

[1] = tested on: Human breast cancer cell MCF-7; test: Cellular antiproliferative assay (MTT, 5 days), MCF-7; assay type: cell-based; details: Homo sapiens, MCF7, 120 h, MCF-7 cells, 5 days incubation
Experimental: (§1) Human breast cancer cell MCF-7, ovarian cancer cell A2780, human mantle cell lymphoma cell JEKO-1. DMEM medium (Bio-Channel), DMSO (dimethyl sulfoxide), MTT (thiazolyl blue), 0.25% EDTA-Tripsin (tryptic digest), 1×PBS (phosphate buffer, PH7.2), 96-well plate (Corning), fetal bovine serum (FBS), 10,000 U/mL penicillin-G/streptomycin, high-speed cryo-centrifuge (EPPENDORF 5810R), enzyme-linked immunoassay (Tecan Spark).
(§2) • A) Tumor cells were cultured in DMEM (high sugar with 10% FBS and 100 U/mL penicillin-G/streptomycin) at 37° C., 5% CO2 and saturated humidity until 80-90% dense. • B) Removed the culture medium from 10 cm Petri dishes; • C) Rinsed the cells once with 10 ml 1×PBS; • D) Added 4 ml 0.25% EDTA-Tripsin into 37° C., 5% CO2 incubator for trypsin digestion for 5 minutes, transferred to 15 ml centrifuge tube, centrifuged at 200 g for 5 minutes, discarded the supernatant to get cell precipitate; • E) Resuspended with 4 ml DMEM medium, counted and adjust to 50,000 cells/ml. • F) Added cell suspension to 96-well plate with 100 μL per well volume and incubated overnight at 37° C., 5% CO2 incubator.
(§3) • A) Preparation of gradient dilution solution of the tested compound: the test compound was configured into 1 mM reservoir solution.
(§4) • A) Taking the cell culture plate and adding 10 μL of 5 mg/ml MTT in the biosafety cabinet; • B) Putting the cell culture plate back into the incubator and continued incubation for 3 hours; • C) Taking the cell culture plate and removing the culture medium, adding 100 μL isopropanol (containing 0.4 mM HCl, 0.1% NP-40), and shaking the bed at room temperature for 30 min; and • D) Determining the absorbance value by selecting 570 nm on a TECAN enzyme-linked immunoassay detector.
(§5) The % Cell Viability was calculated using the following formula:
(§6) [formula] • Lum_HC: 0.1% DMSO control cell reading • Lum_Sample: cell readings with compound added • Lum_LC: Blank medium reading

[2] = tested on: human mantle cell lymphoma cell JEKO-1; test: Cellular antiproliferative assay (MTT, 5 days), JEKO-1; assay type: cell-based; details: Homo sapiens, 120 h, JEKO-1 cells, 5 days incubation
Experimental: as §1, §2, §3, §4, §5, §6

CDK6/CyclinD3 = CDK6/CyclinD3 (Homo sapiens, UniProt Q00534); test: Kinase activity test (mobility shift assay, EZ Reader), CDK6; assay type: biochemical; details: CDK6/CyclinD3 5.00 nM, ATP 350 μM, FL-Peptide34
[3] = tested on: ovarian cancer cell A2780; test: Cellular antiproliferative assay (MTT, 5 days), A2780; assay type: cell-based, human; details: Homo sapiens, 120 h, A2780 cells, 5 days incubation
Experimental: as §1, §2, §3, §4, §5, §6

[4] = Preclinical rat pharmacokinetic test; assay type: in vivo; details: male SD rats, gavage (p.o.), 10 mg/kg, plasma; for AUC(0-t) / Cmax / Tmax: Sprague-Dawley (SD), rat, po
Experimental: Healthy adult SD rats, male, 6-8 weeks old, weighing 200-300 g. EDTA-Na2 anticoagulant. Analytical balance, animal weight scale, magnetic stirrer, freezing centrifuge, single-channel manual pipette. About 10 mg of the sample to be tested was precisely weighed, the converted 5% DMSO was added to dissolve, and then 10 percent solutol HS-15 and 85% saline were added, ultrasonic treatment was performed, vortex mixed, to obtain the solution having a concentration of 1 mg/mL; freshly prepared before use. Animals were kept in rat cages and fasted (not less than 10 h) the day before the test, but not water fasted; on the day of the test, they were weighed and labeled at the tail. Blank blood was collected before drug administration. Blood was collected from the tail vein. • Route of administration: gavage (p.o.). • Dose: 10 mg/kg • Administration volume: 10 mL/kg • Operation procedure: Hold the rat with the left hand with anti-biting gloves, made it stand upright, extent the 16-gauge gavage needle from the throat in the mouth, and then injected the drug into the stomach when there was no obvious resistance. Before and 0.5 […] and 24 h after the administration of the drug, 0.1 ml of whole blood from the test animal was collected in EDTA-Na2 anticoagulant tubes, which was mixed upside down for 3-4 times and then centrifuged at 10,000 g for 5 min at 4° C. to isolate the plasma, which was stored at -80° C. for testing. Blood was collected from the tail vein. […] Pipetted 25 μL of rat blank plasma in a centrifuge tube respectively, added 25 μL of prepared standard series solution (prepared in methanol), then added 200 μL of internal standard solution (prepared in methanol), vortexed and mixed for 2 min, centrifuged at 4° C., 10,000 g for 10 min. Unknown plasma samples treatment: 25 μL of rat plasma containing drug was aspirated, 25 μL of methanol and 200 μL of internal standard solution were added sequentially, vortexed and mixed for 2 min, and then centrifuged at 4° C. and 10,000 g for 10 min. The supernatant was extracted for LC/MS/MS detection. Shimadzu liquid phase and Triple Quad TM 6500+AB mass spectrometry were utilized to establish a quantitative assay for the compounds to be tested. The pro-drug concentration in plasma was determined. The blood drug concentration-time curves were plotted, and the main pharmacokinetic parameters were calculated using the non-compartment model in winnonlin Phoenix software, and the detailed data were shown in Table 3.

Sequence of CDK6/CyclinD3 (Q00534 whole entry, species assumed): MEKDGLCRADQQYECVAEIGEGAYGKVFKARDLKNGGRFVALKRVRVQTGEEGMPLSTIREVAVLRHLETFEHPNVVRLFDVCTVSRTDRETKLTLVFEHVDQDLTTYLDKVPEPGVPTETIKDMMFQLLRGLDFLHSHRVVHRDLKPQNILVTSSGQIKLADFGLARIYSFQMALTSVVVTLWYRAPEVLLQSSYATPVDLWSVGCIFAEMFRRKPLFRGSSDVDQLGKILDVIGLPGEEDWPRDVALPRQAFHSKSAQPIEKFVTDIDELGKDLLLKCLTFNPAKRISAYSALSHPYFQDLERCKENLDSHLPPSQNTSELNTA
Sequence of CDK6/CyclinD3 (P30281 whole entry partner, species assumed): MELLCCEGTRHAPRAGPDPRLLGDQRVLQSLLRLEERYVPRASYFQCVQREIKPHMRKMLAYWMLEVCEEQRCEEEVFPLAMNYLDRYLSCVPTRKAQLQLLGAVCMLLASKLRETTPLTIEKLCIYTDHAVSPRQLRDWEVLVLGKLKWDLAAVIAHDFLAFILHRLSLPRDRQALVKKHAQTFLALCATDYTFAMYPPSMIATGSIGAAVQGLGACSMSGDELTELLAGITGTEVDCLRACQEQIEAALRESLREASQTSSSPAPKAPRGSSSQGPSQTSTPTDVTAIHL
Sequence of CDK4/CycD1 (P11802 whole entry, species assumed): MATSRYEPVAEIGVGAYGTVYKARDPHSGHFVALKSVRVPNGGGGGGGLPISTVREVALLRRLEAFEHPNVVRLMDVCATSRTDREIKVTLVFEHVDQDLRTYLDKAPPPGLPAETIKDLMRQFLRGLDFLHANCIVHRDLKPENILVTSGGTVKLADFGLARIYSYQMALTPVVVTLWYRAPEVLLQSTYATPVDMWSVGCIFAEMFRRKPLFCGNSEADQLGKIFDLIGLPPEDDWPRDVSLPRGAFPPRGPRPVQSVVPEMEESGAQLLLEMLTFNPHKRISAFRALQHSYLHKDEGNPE
Sequence of CDK4/CycD1 (P24385 whole entry partner, species assumed): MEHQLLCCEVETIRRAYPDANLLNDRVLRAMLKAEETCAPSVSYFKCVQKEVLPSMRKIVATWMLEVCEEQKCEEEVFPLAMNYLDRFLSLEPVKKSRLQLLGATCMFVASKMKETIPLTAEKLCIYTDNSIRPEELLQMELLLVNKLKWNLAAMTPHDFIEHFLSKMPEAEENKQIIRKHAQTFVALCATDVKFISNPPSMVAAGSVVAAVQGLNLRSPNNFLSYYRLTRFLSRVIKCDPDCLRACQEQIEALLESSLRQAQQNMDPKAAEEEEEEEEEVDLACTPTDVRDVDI

CC(C)N1CCOc2c(F)cc(-c3nc(NC4CCN(S(C)(=O)=O)CC4)ncc3F)cc21 [TA-6, 5-fluoro-4-(8-fluoro-4-isopropyl-3,4-dihydro-2H-benzo[b][1,4]oxazin-6-yl)-N-(1-(methylsulfonyl)piperidin-4-yl)pyrimidin-2-amine]
IC50 (CDK4/CycD1): 0.00429 µM | IC50 [1]: ≤ 0.5 µM | IC50 [2]: ≤ 0.5 µM | IC50 (CDK6/CyclinD3): 0.0137 µM | IC50 [3]: ≤ 0.5 µM

C[C@H]1CCN(C)c2nc3c(F)cc(-c4nc(Nc5ccncc5)ncc4Cl)cc3n21 [TB-137, (S)-5-chloro-4-(9-fluoro-1,4-dimethyl-1,2,3,4-tetrahydrobenzo[4,5]imidazo[1,2-a]pyrimidin-7-yl)-N-(pyridin-4-yl)pyrimidin-2-amine]
IC50 (CDK4/CycD1): 0.0127 µM | IC50 [1]: ≤ 0.5 µM | IC50 [2]: ≤ 0.5 µM | IC50 (CDK6/CyclinD3): 0.0952 µM | IC50 [3]: ≤ 0.5 µM

CCS(=O)(=O)N1CCC(Nc2ncc(Cl)c(-c3cc(F)c4nc(N5CCOC5=O)n(C(C)C)c4c3)n2)CC1 [TB-31]
IC50 [1]: ≤ 0.5 µM | IC50 [2]: ≤ 0.5 µM | HL— [4]: 1.34 h | IC50 [3]: ≤ 0.5 µM

CC(C)c1c(C(C)(C)O)nc2ccc(-c3nc(N[C@@H]4CCOC[C@H]4O)ncc3Cl)cn12 [TA-25, (3S,4R)-4-((5-chloro-4-(2-(2-hydroxypropan-2-yl)-3-isopropylimidazo[1,2-a]pyridin-6-yl)pyrimidin-2-yl)amino)tetrahydro-2H-pyran-3-ol]
AUC(0-t) [4]: 4470 ng·h/mL | Cmax [4]: 611 ng/mL | Tmax [4]: 3.33 h | HL— [4]: 1.69 h

CC1CC(=O)N(C)c2nc3c(F)cc(-c4nc(N[C@@H]5CCOC[C@H]5O)ncc4Cl)cc3n21 (stereo partly drawn) [TA-53, 7-(5-chloro-2-(((3S,4R)-3-hydroxytetrahydro-2H-pyran-4-yl)amino)pyrimidin-4-yl)-9-fluoro-1,4-dimethyl-3,4-dihydrobenzo[4,5]imidazo[1,2-a]pyrimidin-2(1H)-one]
AUC(0-t) [4]: 3530 ng·h/mL | Cmax [4]: 920 ng/mL | Tmax [4]: 1 h | HL— [4]: 1.77 h

CC(C)n1c(N2CCOC2=O)nc2c(F)cc(-c3nc(N[C@@H]4CCOC[C@H]4O)ncc3Cl)cc21 [TB-24]
HL— [4]: 3.14 h

CC(C)N1CCOc2c(F)cc(-c3nc(N[C@@H]4CCOC[C@H]4O)ncc3F)cc21 [TA-5, (3S,4R)-4-((5-fluoro-4-(8-fluoro-4-isopropyl-3,4-dihydro-2H-benzo[b][1,4]oxazin-6-yl)pyrimidin-2-yl)amino)tetrahydro-2H-pyran-3-ol]
IC50 (CDK4/CycD1): 0.00311 µM | IC50 [1]: ≤ 0.5 µM | IC50 [2]: ≤ 0.5 µM | IC50 (CDK6/CyclinD3): 0.0302 µM | IC50 [3]: ≤ 0.5 µM

CN1CCCn2c1nc1c(F)cc(-c3nc(NC4CCN(S(C)(=O)=O)CC4)ncc3Cl)cc12 [TB-43, 5-chloro-4-(9-fluoro-1-methyl-1,2,3,4-tetrahydrobenzo[4,5]imidazo[1,2-a]pyrimidin-7-yl)-N-(1-(methylsulfonyl)piperidin-4-yl)pyrimidin-2-amine]
IC50 (CDK4/CycD1): 0.0186 µM | IC50 [1]: ≤ 0.5 µM | IC50 [2]: ≤ 0.5 µM | IC50 (CDK6/CyclinD3): 0.2 µM | IC50 [3]: ≤ 0.5 µM

CC(C)N1CCOc2c(F)cc(-c3ccnc(N[C@@H]4CCOC[C@H]4O)n3)cc21 [TA-4, (3S,4R)-4-((4-(8-fluoro-4-isopropyl-3,4-dihydro-2H-benzo[b][1,4]oxazin-6-yl)pyrimidin-2-yl)amino)tetrahydro-2H-pyran-3-ol]
IC50 (CDK4/CycD1): 0.0104 µM | IC50 [1]: ≤ 0.5 µM | IC50 [2]: ≤ 0.5 µM | IC50 (CDK6/CyclinD3): 0.116 µM | IC50 [3]: ≤ 0.5 µM

CC(C)N1C(=O)COc2c(F)cc(-c3nc(N[C@@H]4CCOC[C@H]4O)ncc3Cl)cc21 [TA-2, 6-(5-chloro-2-(((3S,4R)-3-hydroxytetrahydro-2H-pyran-4-yl)amino)pyrimidin-4-yl)-8-fluoro-4-isopropyl-2H-benzo[b][1,4]oxazin-3(4H)-one]
IC50 (CDK4/CycD1): 0.0423 µM | IC50 [1]: 0.5 to 2 µM | IC50 [2]: ≤ 0.5 µM | IC50 (CDK6/CyclinD3): 0.109 µM | IC50 [3]: ≤ 0.5 µM

CC(C)n1c(N2CCOC2=O)nc2c(F)cc(-c3nc(N[C@@H]4CCOC[C@H]4O)ncc3C(F)(F)F)cc21 [TB-27]
HL— [4]: 3.69 h

CC(C)N1CCOc2c(F)cc(-c3nc(NC4CCCC(C(=O)N(C)C)C4)ncc3F)cc21 (centres unmarked) [TA-7, 3-((5-fluoro-4-(8-fluoro-4-isopropyl-3,4-dihydro-2H-benzo[b][1,4]oxazin-6-yl)pyrimidin-2-yl)amino)-N,N-dimethylcyclohexane-1-carboxamide]
IC50 (CDK4/CycD1): 0.0177 µM | IC50 [1]: ≤ 0.5 µM | IC50 [2]: ≤ 0.5 µM | IC50 (CDK6/CyclinD3): > 0.5 µM | IC50 [3]: ≤ 0.5 µM

C[C@H]1CCN(C)c2nc3c(F)cc(-c4nc(N[C@@H]5CCOC[C@H]5O)ncc4Cl)cc3n21 [TB-92, (3S,4R)-4-((5-chloro-4-((S)-9-fluoro-1,4-dimethyl-1,2,3,4-tetrahydrobenzo[4,5]imidazo[1,2-a]pyrimidin-7-yl)pyrimidin-2-yl)amino)tetrahydro-2H-pyran-3-ol]
IC50 [1]: ≤ 0.5 µM | IC50 [2]: ≤ 0.5 µM | HL— [4]: 1.21 h | IC50 [3]: ≤ 0.5 µM

CC(C)N1CCOc2c(F)cc(-c3nc(N[C@@H]4CCOC[C@H]4O)ncc3Cl)cc21 [TA-1]
IC50 (CDK4/CycD1): 0.000849 µM | IC50 [1]: ≤ 0.5 µM | IC50 [2]: ≤ 0.5 µM | IC50 (CDK6/CyclinD3): 0.0236 µM | IC50 [3]: ≤ 0.5 µM

CC(C)N1CCOc2c(F)cc(-c3nc(NC4CCN(S(C)(=O)=O)CC4)ncc3Cl)cc21 [TA-11, 5-chloro-4-(8-fluoro-4-isopropyl-3,4-dihydro-2H-benzo[b][1,4]oxazin-6-yl)-N-(1-(methylsulfonyl)piperidin-4-yl)pyrimidin-2-amine]
IC50 (CDK4/CycD1): 0.00719 µM | IC50 [1]: ≤ 0.5 µM | IC50 [2]: ≤ 0.5 µM | IC50 (CDK6/CyclinD3): 0.0247 µM | IC50 [3]: ≤ 0.5 µM

CC(C)n1c(N2CCOCC2)nc2c(F)cc(-c3nc(N[C@@H]4CCOC[C@H]4O)ncc3Cl)cc21 [TB-12, (3S,4R)-4-((5-chloro-4-(4-fluoro-1-isopropyl-2-morpholino-1H-benzo[d]imidazol-6-yl)pyrimidin-2-yl)amino)tetrahydro-2H-pyran-3-ol]
IC50 [1]: ≤ 0.5 µM | IC50 [2]: ≤ 0.5 µM | HL— [4]: 3.14 h | IC50 [3]: ≤ 0.5 µM

COc1ncc(-c2nc(N[C@@H]3CCOC[C@H]3O)ncc2F)c2c1CCC2 [TA-34, (3S,4R)-4-((5-fluoro-4-(1-methoxy-6,7-dihydro-5H-cyclopenta[c]pyridin-4-yl)pyrimidin-2-yl)amino)tetrahydro-2H-pyran-3-ol]
IC50 (CDK4/CycD1): 0.729 µM | IC50 (CDK6/CyclinD3): 2.58 µM

CC(=O)N1CCC[C@@H](Nc2ncc(Cl)c(-c3cc(F)c4c(c3)N(C(C)C)CCO4)n2)C1 [TA-16, (R)-1-(3-((5-chloro-4-(8-fluoro-4-isopropyl-3,4-dihydro-2H-benzo[b][1,4]oxazin-6-yl)pyrimidin-2-yl)amino)piperidin-1-yl)ethan-1-one]
IC50 (CDK4/CycD1): 0.0153 µM | IC50 (CDK6/CyclinD3): 0.0991 µM
